Data taken from ChEMBL document CHEMBL1201862, “PubChem BioAssay data set” (2004).
Values belong to the compound of their own block, whether it stands above or below them. Activity calls are given as the source filed them.

Legend:
BJ [1] = assay: cytotoxicity toward BJ-TERT fibroblasts, dose response, cell-based, RAS-independent, luminescence (AID 1933); type: functional; details: Homo sapiens
[2] = cytotoxicity toward HT-29 cells – cell-based, CellTiter-Glo luminescence, IC50, dose response (AID 1117330); type: functional
[3] = inhibitors of firefly luciferase expression or activity, dose response, H4 neuroglioma cells, luminescence (AID 1990); type: functional, cell-based
[4] = Concentration-dependent survival of SW480 colon cancer line, luminescence detection with CellTiter-Glo, half-maximal inhibitory concentration (AID 1117338); type: functional
BJ [5] = assay: cytotoxicity toward BJ-TERT-LT-ST fibroblasts, dose response, cell-based, RAS-independent, luminescence (AID 1935); type: functional; details: Homo sapiens;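 further: BJ fibroblasts immortalized with TERT plus LT and ST oncogenes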
[6] = inhibitors of SNCA 5'UTR-driven reporter translation, confirmation, H4 neuroglioma cells, luminescence (AID 1988); type: functional, cell-based
[7] = target: T1, Rac GTPase-activating protein 1 (Homo sapiens, UniProt Q9H0H5); assay: MgcRacGAP GTPase-activating activity inhibitors, confirmation, biochemical, ADP Hunter fluorescence, primary and confirmatory (AID 624330); type: functional
T1 sequence (Q9H0H5 whole entry): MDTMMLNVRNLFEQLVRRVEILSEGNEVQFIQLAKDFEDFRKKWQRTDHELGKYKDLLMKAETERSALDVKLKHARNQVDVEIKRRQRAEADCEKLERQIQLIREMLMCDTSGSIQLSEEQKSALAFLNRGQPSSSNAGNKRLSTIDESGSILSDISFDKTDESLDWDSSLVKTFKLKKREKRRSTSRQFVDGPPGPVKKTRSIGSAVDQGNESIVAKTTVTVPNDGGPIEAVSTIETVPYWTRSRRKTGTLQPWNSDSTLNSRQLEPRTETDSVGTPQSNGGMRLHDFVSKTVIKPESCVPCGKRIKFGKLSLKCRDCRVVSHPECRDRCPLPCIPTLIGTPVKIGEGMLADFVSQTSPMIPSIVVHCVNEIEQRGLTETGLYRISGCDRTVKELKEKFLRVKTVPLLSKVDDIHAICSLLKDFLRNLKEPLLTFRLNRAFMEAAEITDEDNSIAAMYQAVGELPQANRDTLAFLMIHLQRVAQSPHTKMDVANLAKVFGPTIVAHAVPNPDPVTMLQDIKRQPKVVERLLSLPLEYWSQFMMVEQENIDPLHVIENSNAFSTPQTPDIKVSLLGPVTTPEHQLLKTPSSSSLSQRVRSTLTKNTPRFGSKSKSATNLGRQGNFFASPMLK

[8] = CellTiter-Glo luminescent dose response of DLD-1 viability loss (AID 1117352); type: functional
[9] = target: Serine/threonine-protein phosphatase (Homo sapiens, UniProt Q9BPW0); assay: PP5 phosphatase inhibitors, dose response, biochemical, fluorescence (AID 2395)
[10] = target: T2, Sentrin-specific protease 8 (Homo sapiens, UniProt Q96LD8); type: functional;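 further: luminescence read-out of SENP8 inhibition, dose-response confirmation following an ultra-high-throughput screen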
T2 sequence (Q96LD8 whole entry): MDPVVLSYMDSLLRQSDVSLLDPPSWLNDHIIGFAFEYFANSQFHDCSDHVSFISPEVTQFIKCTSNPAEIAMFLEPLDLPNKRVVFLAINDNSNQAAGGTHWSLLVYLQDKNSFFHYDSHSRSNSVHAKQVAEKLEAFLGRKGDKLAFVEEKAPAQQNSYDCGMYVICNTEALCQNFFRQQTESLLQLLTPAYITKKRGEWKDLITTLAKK

[11] = target: T2, Sentrin-specific protease 8; assay: SENP8 protease inhibitors, SAR follow-up, biochemical, luminescence (AID 504501); type: functional
[12] = target: T3, Mannose-6-phosphate isomerase (Homo sapiens, UniProt P34949); assay: inhibitors of human PMI, primary screen, biochemical, fluorescence intensity, coupled assay (AID 1209)
T3 sequence (P34949 whole entry): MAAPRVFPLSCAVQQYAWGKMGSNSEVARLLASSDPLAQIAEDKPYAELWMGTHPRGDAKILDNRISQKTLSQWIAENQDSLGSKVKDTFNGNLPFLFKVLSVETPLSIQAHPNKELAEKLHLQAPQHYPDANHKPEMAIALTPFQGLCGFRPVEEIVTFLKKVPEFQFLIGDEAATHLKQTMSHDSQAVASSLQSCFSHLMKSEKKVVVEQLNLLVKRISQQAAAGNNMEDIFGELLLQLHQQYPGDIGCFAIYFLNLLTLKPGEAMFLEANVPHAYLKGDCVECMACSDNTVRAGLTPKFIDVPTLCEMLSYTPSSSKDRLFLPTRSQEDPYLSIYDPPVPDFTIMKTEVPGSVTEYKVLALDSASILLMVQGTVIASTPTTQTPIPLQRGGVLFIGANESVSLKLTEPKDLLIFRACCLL

[13] = target: Intestinal-type alkaline phosphatase (Homo sapiens, UniProt P09923); assay: activation of human intestinal alkaline phosphatase – biochemical, dose response (AID 488873); type: functional
[14] = target: T4, Alkaline phosphatase, tissue-nonspecific isozyme (Homo sapiens, UniProt P05186); assay: TNAP enzyme inhibition by screening hits, dose response, selectivity assay for mouse IAP inhibitor project, biochemical, human TNAP, uHTS hits (AID 488906); type: functional
T4 sequence (P05186 whole entry): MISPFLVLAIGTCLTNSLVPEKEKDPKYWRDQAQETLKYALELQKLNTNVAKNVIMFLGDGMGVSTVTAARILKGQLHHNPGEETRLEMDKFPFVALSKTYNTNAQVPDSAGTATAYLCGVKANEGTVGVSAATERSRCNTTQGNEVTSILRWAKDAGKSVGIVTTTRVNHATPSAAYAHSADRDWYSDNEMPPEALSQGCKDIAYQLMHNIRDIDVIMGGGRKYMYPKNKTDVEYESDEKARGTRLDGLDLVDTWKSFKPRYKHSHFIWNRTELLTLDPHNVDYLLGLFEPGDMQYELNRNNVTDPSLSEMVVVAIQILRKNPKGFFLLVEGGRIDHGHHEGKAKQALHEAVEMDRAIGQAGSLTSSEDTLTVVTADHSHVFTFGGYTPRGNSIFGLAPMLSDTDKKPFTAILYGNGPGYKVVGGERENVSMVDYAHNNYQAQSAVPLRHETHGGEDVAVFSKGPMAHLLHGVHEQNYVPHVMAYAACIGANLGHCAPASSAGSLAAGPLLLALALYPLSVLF

Caspase-3 = target: T5, Caspase-3 (Homo sapiens, UniProt P42574); assay: SAR Analysis of small molecule inhibitors of Sentrin-specific proteases (SENPs) using a Caspase-3 Selectivity assay. [Related pubchem assays (depositor defined):AID2540, AID2599, AID434973, AID489001]; type: functional
T5 sequence (P42574 whole entry): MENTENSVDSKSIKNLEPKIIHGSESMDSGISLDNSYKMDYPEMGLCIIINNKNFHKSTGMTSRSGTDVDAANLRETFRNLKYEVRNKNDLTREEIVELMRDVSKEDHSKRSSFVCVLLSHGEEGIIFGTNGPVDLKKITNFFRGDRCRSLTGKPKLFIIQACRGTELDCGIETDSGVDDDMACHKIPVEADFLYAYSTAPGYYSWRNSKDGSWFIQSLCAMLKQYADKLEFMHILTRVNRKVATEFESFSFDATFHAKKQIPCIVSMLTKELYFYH

[15] = target: T3, Mannose-6-phosphate isomerase; assay: human PMI inhibitors, high substrate, primary screen, biochemical, fluorescence intensity, high mannose 6-phosphate (AID 1220)

Chain of Intestinal-type alkaline phosphatase (P09923 whole entry): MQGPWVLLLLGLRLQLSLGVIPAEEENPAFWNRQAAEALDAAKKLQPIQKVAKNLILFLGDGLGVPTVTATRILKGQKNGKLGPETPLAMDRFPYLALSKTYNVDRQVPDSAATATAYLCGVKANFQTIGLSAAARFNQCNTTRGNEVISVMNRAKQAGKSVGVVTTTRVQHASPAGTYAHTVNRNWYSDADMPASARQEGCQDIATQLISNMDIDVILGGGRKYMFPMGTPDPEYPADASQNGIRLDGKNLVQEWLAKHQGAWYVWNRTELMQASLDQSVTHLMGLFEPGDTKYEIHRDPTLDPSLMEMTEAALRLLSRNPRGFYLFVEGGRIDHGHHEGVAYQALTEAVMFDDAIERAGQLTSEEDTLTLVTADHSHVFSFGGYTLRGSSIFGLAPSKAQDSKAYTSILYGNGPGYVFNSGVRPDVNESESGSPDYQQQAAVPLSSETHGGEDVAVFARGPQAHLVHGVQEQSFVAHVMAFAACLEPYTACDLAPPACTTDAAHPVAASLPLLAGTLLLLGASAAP
Chain of Serine/threonine-protein phosphatase (Q9BPW0 whole entry): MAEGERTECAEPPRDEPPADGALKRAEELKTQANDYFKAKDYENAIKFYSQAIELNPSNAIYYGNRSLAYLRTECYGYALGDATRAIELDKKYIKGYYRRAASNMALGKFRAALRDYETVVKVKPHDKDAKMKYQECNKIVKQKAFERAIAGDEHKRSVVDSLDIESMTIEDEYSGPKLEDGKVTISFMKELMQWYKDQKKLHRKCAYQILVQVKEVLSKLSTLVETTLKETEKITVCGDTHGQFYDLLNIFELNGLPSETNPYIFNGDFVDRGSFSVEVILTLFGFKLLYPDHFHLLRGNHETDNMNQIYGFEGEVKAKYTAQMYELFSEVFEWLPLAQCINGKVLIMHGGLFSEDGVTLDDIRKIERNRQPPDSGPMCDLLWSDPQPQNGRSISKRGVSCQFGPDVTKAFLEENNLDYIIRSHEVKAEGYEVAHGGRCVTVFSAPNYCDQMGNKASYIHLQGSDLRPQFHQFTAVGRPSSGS

Structure (SMILES): Cc1cc2nc3ccc(N(C)C)cc3[s+]c2cc1N [TOLONIUM CHLORIDE]
EC50 (BJ [1]): 5.74 µM (active) | IC50 [2]: 5.06 µM (inactive) | EC50 [3]: 8.36 µM (active) | IC50 [4]: 1.4 µM (active) | EC50 (BJ [5]): 9.19 µM (inconclusive) | EC50 [6]: 7.13 µM (active) | IC50 [7]: 32.4 µM (active) | IC50 [8]: 9.38 µM (inactive)

IC50 [9]: 9.93 µM (active)
Structure (SMILES): CCCOc1cc2c(C#N)c(N3CCCC3)nc(N)c2c(N)n1
IC50 [10]: 4.32 µM (active)

IC50 [12]: > 50 µM (not active) | EC50 [13]: > 100 µM (inactive) | IC50 [14]: > 100 µM (inactive) | IC50 (Caspase-3): > 99 µM (inactive) | IC50 [15]: > 50 µM (not active)
Structure (SMILES): Oc1ccc(/C=N/Nc2cc(N3CCCC3)nc(N3CCCC3)n2)cc1O
IC50 [11]: > 99 µM (inactive)
